In patent publication US20250025480A1, “METHODS AND PHARMACEUTICAL COMPOSITIONS FOR THE TREATMENT OF CHOROIDAL NEOVASCULARISATION” (INSERM (INSTITUT NATIONAL DE LA SANTE ET DE LA RECHERCHE …, priority 2015, published 2025):

What was measured:
Assay type in all cases: in vivo
[1] = test system: Transcript levels of MCP1, IL6, IL1β, TNFα, VEGF-A and PIGF; experiment: Quantitative PCR of rat neuroretina and RPE-choroid complex 3 days after laser; conditions: day 3, subcutaneous spironolactone
Experimental: (§1) After anesthesia and dilation of the pupils, coverslips were positioned on the cornea as a contact glass. For rats, six to eight burns were performed 2 to 3-disk diameters away from the papillae with an Argon laser (532 nm) mounted on a slit lamp (170 mW, 0.1 second and 50 μm). For mice, four laser burns were induced at the 3, 6, 9 and 12 o'clock positions around the optic disc (250 mW, 0.05 second and 50 μm). The presence of a bubble witnessed the rupture of Bruch's membrane and confirmed the success of the laser impact.
Treatments were introduced only in rat model of CNV. After laser photocoagulation, rats were divided into 6 groups: 1) non-treated; 2) daily subcutaneous injection of spironolactone diluted in oliver oil and DMSO (25 mg/kg/day) until sacrifice; 3) daily subcutaneous injection of vehicle (oliver oil and DMSO) until sacrifice; 4) intravitreous injection (IVT) of anti-rat VEGF (1.5 μg/μl, 5 μl, RnD system, Lille, France) only at day 0 (Couturier A et al. Anti-vascular endothelial growth factor acts on retinal microglia/macrophage activation in a rat model of ocular inflammation. Mol Vis 2014;20:908-20); 5) IVT of spironolactone-loaded PLGA MPs only at day 0 (2.2 μg/μl, 5 μl, obtained from team of Pr R. Herrero-Vanrell, Complutense University of Madrid). Considering the ex vivo release profile of Spi-MPs, the daily dose of spironolactone released in the vitreous is estimated at 18 μM; 6) IVT of blank PLGA MPs (5 μl) only at day 0.
Three days after laser induction, rat neuroretinas and RPE-choroid-sclera complexes were carefully dissected from enulcated eyes and snap-frozen in liquid nitrogen and stored at −80° C. until use. Total RNA was isolated from tissues using RNeasy Plus Mini Kit (Qiagen, Courtaboeuf, France) according to the manufacturer's instructions. First-strand complementary DNA was synthesized from total mRNA using random primers (Life Technologies, Cergy Pontoise, France) and SuperScript II reverse transcriptase (Life Technologies). Transcript levels of MR, MCP1, IL6, IL1β, TNFα, VEGF-A and PIGF were analyzed by quantitative real-time PCR performed in 7500 Real-Time PCR System (Applied Biosystems, Foster City, CA, USA) with either SYBR Green or TaqMan detection.

[2] = test system: macrophage/microglial recruitment; experiment: IBA1 immunofluorescence count of activated macrophage/microglial cells in laser burns on RPE-choroid flatmounts; conditions: rat, day 3 after laser, subcutaneous spironolactone; P<0.05
Experimental: as §1
Treatments were introduced only in rat model of CNV. After laser photocoagulation, rats were divided into 6 groups: 1) non-treated; 2) daily subcutaneous injection of spironolactone diluted in oliver oil and DMSO (25 mg/kg/day) until sacrifice; 3) daily subcutaneous injection of vehicle (oliver oil and DMSO) until sacrifice; 4) intravitreous injection (IVT) of anti-rat VEGF (1.5 μg/μl, 5 μl, RnD system, Lille, France) only at day 0 (Couturier A et al. Anti-vascular endothelial growth factor acts on retinal microglia/macrophage activation in a rat model of ocular inflammation. […]
Three days after laser induction (peak of macrophage infiltration), rat RPE-choroidal flatmounts were also prepared for immunofluorescence. […] IBAI positive macrophage/microglial cells were counted on stained laser lesions. The average cell number/per impact/rat eye was calculated.

[3] = test system: choroidal neovascularisation (CNV) induced by laser in rat eyes; experiment: Fluorescein angiography grading of vascular leakage in rat model of laser-induced CNV; conditions: 14 days after laser, versus laser control, spironolactone subcutaneous 25 mg/kg/day, anti-VEGF intravitreous at day 0
Experimental: (§2) All experiments were performed in accordance with the European Communities Council Directive 86/609/EEC and approved by local ethical committees (Ce5/2012/113). Six to eight-week old male Brown Norway rats from Janvier breeding Center (Le Genest-Saint-Isle, France) were used to create rat model of CNV. Vascular endothelial cell-specific MR knock-out mice (EC-MR-KO) and monocyte/macrophage-specific MR knock-out mice (MC-MR-KO) were generated in C57BL/6 genetic background mice and were obtained from team of Dr F. Jaisser (UMRS 1138, team 1). EC-MR-KO mice were created by mating transgenic mice expressing Cre recombinase in endothelial cells with mice harbouring MR-floxed alleles (Berger S et al. Loss of limbic mineralocorticoid receptor impairs behavioural plasticity. PNAS USA 2006). MC-MR-KO mice were obtained by mating mice expressing Cre recombinase in monocytes/macrophages (Clausen BE et al. Conditional gene targeting in macrophages and granulocytes using LysMcre mice. Trangenic Research 1999) with mice harbouring MR-floxed alleles. Animals were kept in pathogen-free conditions with food, water and litter and housed in a 12-hour light/12-hour dark cycle. […]
FA was performed 14 days (in rats) or 10 days (in mice) after laser induction. […] Early and late phase angiograms were recorded 1-3 and 5-7 min respectively after fluorescein injection. […]

[4] = test system: choroidal neovascularisation (CNV) induced by laser in rat eyes; experiment: CNV volume quantification on RPE-choroid flatmounts (FITC-GSL I-Isolectin B4) in rat laser-induced CNV
Experimental: as §2, with “alleles.” for “alleles. Animals were kept in pathogen-free conditions with food, water and litter and housed in a 12-hour light/12-hour dark cycle.”
The deepest focal plane in which the surrounding choroidal vascular network connecting to the lesion could be identified was judged to be the floor of the CNV lesion. The area of CNV-related fluorescence on each horizontal section was measured using ImageJ software. […]

[5] = RPE-choroid complex and neuroretina

## CC(=O)S[C@@H]1CC2=CC(=O)CC[C@]2(C)[C@H]2CC[C@@]3(C)[C@@H](CC[C@@]34CCC(=O)O4)[C@H]12 [spironolactone, 17-hydroxy-7α-mercapto-3-oxo-17α-pregn-4-ene-21-carboxylic acid γ-lactone acetate]
[1]; [5]
  expression of PIGF at RNA level: not regulated
  expression of VEGF-A at RNA level: not regulated
[1]; RPE-choroid complex
  laser-induced gene expression of IL1β: down-regulates
  laser-induced gene expression of IL6: down-regulates
  laser-induced gene expression of MCP1: down-regulates
  laser-induced gene expression of TNFα: down-regulates
[1]; neuroretina
  laser-induced gene expression of IL1β: down-regulates
  laser-induced gene expression of MCP1: down-regulates
  laser-induced gene expression of TNFα: down-regulates
[2]
  activated IBA1 positive macrophage/microglia in laser burns versus laser control: significant fewer
[3]
  decrease in angiographic score (grading of vascular leakage on FA): −45%
[4]; RPE/choroid flatmounts 16 days after laser, spironolactone subcutaneous, anti-VEGF intravitreous, P<0.01
  CNV volume compared to laser control: significant decrease
[4]; systemic administration of spironolactone
  CNV development: limits the CNV development
